This is an account of results in publication PMC8287724, “Reducing Auditory Nerve Excitability by Acute Antagonism of Ca^2+-Permeable AMPA Receptors” (Frontiers in Synaptic Neuroscience, 2021).

Data set [1] is described as follows: Metabolic stability in vitro as summarised in the abstract (species not given). Format: in vitro ADME. The conditions noted are these: mouse, guinea pig, human, liver microsomes, pH 7.4. As to the method: The stability of IEM-1460 in the presence of guinea pig liver microsomes (BioIVT, PN: X008070) or IEM-1925 in the presence of human (BioIVT, PN: M00101), mouse, or guinea pig liver microsomes was evaluated (Paraza Pharma, Inc., Montreal, Quebec, Canada). Both IEM-1925 and IEM-1460 were incubated with microsomes at 37°C for a total of 45 min. Working solutions were prepared in 100 mM potassium phosphate buffer and the final reaction was performed at pH 7.4 in 100 mM potassium phosphate buffer containing 0.5 mg/mL liver microsomal protein. Phase I metabolism was assessed by adding NADPH to a final concentration of 1 mM and collecting samples at time points 0, 5, 15, 30, and 45 min. All collected samples were quenched 1:1 with ice-cold stop solution (1 μM labetalol and 1 μM glyburide in acetonitrile) and centrifuged to remove precipitated protein. […] Samples were analyzed by LC-MS/MS using a Thermo Vanquish UPLC and a Thermo Quantis triple quadrupole mass spectrometer. […] Reference compounds were also assessed to ensure accuracy and precision of experimental protocol: imipramine and verapamil for human liver microsomes, diphenhydramine and verapamil for mouse liver microsomes, and warfarin and verapamil for guinea pig liver microsomes. […] Half-life was determined from a plot of the natural logarithm of the peak area ratio (remaining compound peak area/internal standard peak area) against time.

The test system of data set [2] is cochlear afferent synapses. Set-up: method as in Hu et al., 2020. The conditions noted are these: mouse; ~2.5 days of sustained intracochlear delivery; synaptopathic noise ref Hu et al., 2020; cited from earlier work.
Data set [3] has as its system auditory nerve compound action potential (CAP). The experiment in a line: Auditory nerve CAP after systemic (intraperitoneal) delivery. Particulars: for effect on CAP thresholds: 1 to 22 kHz; for CAP amplitude reduction, on average: after ~1 h, 8 kHz tone bursts at 90 dB SPL. Format: in vivo, guinea pig. As for the experimental part:
This study utilized 21 NIH-strain, pigmented guinea pigs weighing from 400 to 650 g, in accordance with policies and protocols approved by the Institutional Animal Care and Use Committee at Washington University in St. Louis (20180133, 20190035). Animals were anesthetized with intraperitoneal (IP) injection of 100 mg/kg sodium thiobutabarbital (Inactin, Sigma, St. Louis, MO). Once anesthetized, the fur from the head and neck was shaved and a tracheal cannula was placed. The animal was maintained on 0.8–1.2% isoflurane in oxygen using a mechanical ventilator. The ventilator's tidal volume was adjusted to maintain a 5% end-tidal CO2 which was monitored with a CapnoTrue AMP (Bluepoint Medical, Zevenaar, The Netherlands). Body temperature was maintained at 38 degrees C with a DC-powered heating blanket-rectal thermometer (Model 50-7079; Harvard Apparatus). Heart rate and oxygen saturation were monitored with a pulse oximeter (Surgivet, Waukesha, WI). The auditory bulla was exposed ventrally for placement of recording electrodes. The jugular vein was cannulated to maintain hydration with 0.5 mL per hour of Lactated Ringer's solution. To prevent middle ear muscle contractions, vecuronium bromide (0.2 mg/kg) was administered immediately prior to data collection and every 1.5 h thereafter.
As described for local delivery, cochlear output was measured similarly for systemic delivery of IEM-1460 and IEM-1925. Complete details have been previously published (Salt et al., [2013]). Briefly, acoustic tone bursts were applied in a closed sound system. The plastic extension tube of the acoustic assembly (Etymotic Research, ER-10 C) was coupled to the end of the hollow ear bar with the tube tip positioned ~1.5 mm from the tympanic membrane. Stimulus generation and data collection were performed with Tucker Davis System 3 hardware controlled by a custom written program (Microsoft Visual Basic). Stimulus waveforms were routed through a programmable Tucker Davis PA5 attenuator and HB7 headphone amplifier. Stimuli were calibrated from 0.125 to 26 kHz in 1/4 octave steps. A CAP audiogram was obtained at the beginning and end of the experiment. Up to 60 min of baseline audiometric data were obtained prior to drug delivery. Data with baseline changes >20% were excluded. A 13-level tone probe series, at selected frequencies, was repeated at 2-min intervals. Distortion product otoacoustic emissions (DPOAEs) were measured using an ER10C probe system. The two primary tone frequencies were set at 6 kHz (f1) and 7.4 kHz (f2), for a f2/f1-ratio of 1.23, with levels of 65 dB SPL (L1) and 55 dB SPL (L2).
At each probe frequency, CAP peak-to-peak amplitudes were measured from the first trough (N1) to the first peak (P1). Latencies were measured to the trough of N1. Cochlear output was compared before and after intraperitoneal drug delivery. The data were tested for normality using a Kolmogorov-Smirnov test. For CAP amplitude and latency, significance was assessed with the Mann-Whitney U-test. The Wilcoxon signed rank test was used to assess CAP threshold. Friedman test was used to compare concentrations of drug between perilymph and CSF. A p < 0.05 was considered statistically significant. A Bonferroni correction was used when performing multiple comparison testing. All statistical tests were performed with IBM SPSS Statistics Version 27 (SPSS Inc., Chicago, IL, United States).
After at least 30 min of baseline data, 1 mL of Lactated Ringer's was injected into the peritoneal space of the guinea pig as a vehicle control. Then, 13.5 mg/kg IEM-1460 or 8 mg/kg IEM-1925 in Lactated Ringer's was injected into the peritoneal space of the guinea pig. The entire experiment took ~3 h to complete: 1 h for anesthetic induction and surgery, 30 min for sound calibration and CAP threshold measurements, and 2 h for drug delivery, DPOAE and CAP measurements. After collection of perilymph and CSF, the animal was euthanized via saturated KCl delivered directly into the jugular vein. […]

The mark [4] stands for this setting: IP injection: IEM-1460 13.5 mg/kg, IEM-1925 8 mg/kg.
Where [5] appears, read: IP injection: IEM-1460 13.5 mg/kg, IEM-1925 8 mg/kg, N = 4.

As to `C[N+](C)(C)CCCCCNCC12CC3CC(CC(C3)C1)C2` [IEM-1460], the half-life in data set [1] is over 5 h. In data set [2], the “effect on noise-induced synapse loss and ABR wave-I amplitude” value was “prevented synapse loss and loss of wave-I amplitude”. Also, the “effect on CAP latency” value in data set [3] (IP 13.5 mg/kg, all tone levels, N = 4) was “no statistically significant difference”. For the same compound, the “mean difference between pre- and post-injection CAP amplitudes” value in data set [3] (IP 13.5 mg/kg, exemplary recording, across tone levels) is on record as 19.1–269 μV. Also, in data set [3] (IP 13.5 mg/kg, exemplary recording, probes of 40–90 dB SPL), the “relative reduction of CAP amplitude” value was ~ 50%. The “delay from IP injection to start of CAP reduction” value in data set [3] (setting [4]) was in the range of 20 to 50 min. Besides, in data set [3] (setting [5]), the “effect on CAP thresholds” value is reported as “not statistically different” and the “CAP amplitude reduction, on average” value is ~ 20%.
As to `NCCCCCNC1(c2ccccc2)CCCCC1` [IEM-1925], the half-life in data set [1] is over 5 h. In data set [3] (setting [4]), the “CAP reduction from baseline” value was over 50%. In data set [3] (setting [5]), the “effect on CAP thresholds” value is recorded as “minimal effect” and the “CAP amplitude reduction, on average” value is listed as ~ 20%.
